According to BigSolDB 2.1:

c1cc(-n2c3ccccc3c3ccccc32)cc(-n2c3ccccc3c3ccccc32)c1
solubility (mole fraction)
Conditions | 273.15 K | 283.15 K | 293.15 K | 303.15 K | 313.15 K | 323.15 K
in DMSO | – | – | 0.00436 | 0.00443 | 0.00472 | 0.00505
in NMP | – | 0.062 | 0.0702 | 0.0761 | 0.0801 | –
in THF | – | 0.0507 | 0.0528 | 0.0598 | 0.0792 | –
in acetonitrile | – | 0.000243 | 0.000311 | 0.000363 | 0.000483 | –
in dichloromethane | 0.0949 | 0.107 | 0.112 | 0.139 | – | –
in ethanol | – | 0.000448 | 0.000561 | 0.000802 | 0.00109 | –
in ethyl acetate | – | 0.00426 | 0.00599 | 0.00827 | 0.00879 | –
in isopropanol | – | 4.55e-05 | 5.9e-05 | 6.95e-05 | 0.00011 | –
in methanol | – | 4.36e-05 | 6.14e-05 | 9.66e-05 | 0.000108 | –
in n-butanol | – | 0.000122 | 0.00017 | 0.000217 | 0.000318 | –
in n-hexane | – | 0.000183 | 0.000259 | 0.000342 | 0.000381 | –
in toluene | – | 0.0263 | 0.0316 | 0.0336 | 0.0445 | –
